This is an account of results in ChEMBL document CHEMBL3627644, “2-Arylquinazolin-4(3H)-ones: A new class of α-glucosidase inhibitors” (Bioorg Med Chem, 2015).

A short description of assay [1]: Inhibition of Saccharomyces cerevisiae alpha-glucosidase for 15 mins by multiplate reader method using 0.7 mM p-nitrophenyl-alpha-D-glucopyranoside as substrate.
Assay [2] in a line: Competitive inhibition of Saccharomyces cerevisiae alpha-glucosidase by multiplate reader method using p-nitrophenyl-alpha-D-glucopyranoside as substrate.
Assay [3] can be described thus: Mixed inhibition of Saccharomyces cerevisiae alpha-glucosidase by multiplate reader method using p-nitrophenyl-alpha-D-glucopyranoside as substrate.
The nature of assay [4]: Non-Competitive inhibition of Saccharomyces cerevisiae alpha-glucosidase by multiplate reader method using p-nitrophenyl-alpha-D-glucopyranoside as substrate.

Broadly, the IC50 is the concentration needed to halve the response being measured. On to `O=c1[nH]c(-c2ccccc2Cl)nc2ccccc12`, for which the IC50 in assay [1] (read-out: IC50) came out at 1300 nM.

`COc1ccc(-c2nc3ccccc3c(=O)[nH]2)cc1O`: the IC50 in assay [1] (read-out: IC50) stood at 1900 nM.

What is called Ki is the equilibrium dissociation constant of an inhibitor or competing ligand from its target. Higher therefore signals weaker binding. As to `C[C@H]1O[C@H](O[C@H]2[C@H](O)[C@@H](O)[C@@H](O[C@H]3[C@H](O)[C@@H](O)C(O)O[C@@H]3CO)O[C@@H]2CO)[C@H](O)[C@@H](O)[C@@H]1N[C@H]1C=C(CO)[C@@H](O)[C@H](O)[C@H]1O` (stereo partly drawn) [ACARBOSE], the Ki in assay [2] came to 736000 nM.

With `O=c1[nH]c(-c2ccc(O)c(O)c2)nc2ccccc12`, the IC50 in assay [1] (read-out: IC50) turned out to be 1500 nM.

Take `CCOc1cc(-c2nc3ccccc3c(=O)[nH]2)ccc1O`: the IC50 in assay [1] (read-out: IC50) is 300 nM. The affinity in assay [2], expressed as Ki, was 430 nM.

In the case of `CN(C)c1ccc(-c2nc(O)c3ccccc3n2)cc1`, the IC50 in assay [1] (read-out: IC50) was found to be 2750 nM.

Take `O=c1[nH]c(-c2ccc([N+](=O)[O-])cc2)nc2ccccc12`: the IC50 result in assay [1] is “Not Active”; in assay [1] (read-out: IC50), 20000 nM.

On to `O=c1[nH]c(-c2c(Cl)cccc2Cl)nc2ccccc12`, for which the IC50 in assay [1] (read-out: IC50) stood at 68100 nM.

With `O=c1[nH]c(-c2c(O)cccc2Br)nc2ccccc12`, in assay [1] (read-out: IC50), the IC50 came out at 9730 nM.

Turning to `O=c1[nH]c(-c2cc(O)ccc2O)nc2ccccc12`, the IC50 in assay [1] (read-out: IC50) was 2350 nM.

For the compound `COc1cc(-c2nc3ccccc3c(=O)[nH]2)cc(OC)c1OC`, the IC50 in assay [1] (read-out: IC50) came out at 118000 nM.

As to `COc1ccc(-c2nc(O)c3ccccc3n2)cc1OC`, the half-maximal inhibitory concentration (IC50) in assay [1] (read-out: IC50) was determined as 860 nM. The same compound registered an inhibition constant Ki in assay [2] of 283 nM.

In the case of `O=c1[nH]c(-c2ccc(O)cc2)nc2ccccc12`, in assay [1] (read-out: IC50), the IC50 was found to be 10500 nM.

Regarding `O=c1[nH]c(-c2cc(Cl)ccc2Cl)nc2ccccc12`, the IC50 in assay [1] (read-out: IC50) was determined as 16200 nM.

As for `Cc1ccc(-c2nc3ccccc3c(=O)[nH]2)cc1`, the 50% inhibitory concentration (IC50) in assay [1] (read-out: IC50) is 76000 nM.

On to `COc1cccc(-c2nc3ccccc3c(=O)[nH]2)c1O`, for which the IC50 in assay [1] (read-out: IC50) was found to be 14600 nM.

As for `COc1ccc(O)c(-c2nc3ccccc3c(=O)[nH]2)c1`, the IC50 in assay [1] (read-out: IC50) was found to be 1150 nM.

On to `CCOc1ccc(-c2nc3ccccc3c(=O)[nH]2)cc1`, for which, in assay [1] (read-out: IC50), the IC50 was determined as 3250 nM.

With `CCOc1ccccc1-c1nc2ccccc2c(=O)[nH]1`, the half-inhibitory concentration (IC50) in assay [1] (read-out: IC50) amounted to 570 nM. This compound yielded a Ki in assay [3] of 6600 nM.

Turning to `O=c1[nH]c(-c2cccc(O)c2)nc2ccccc12`, the IC50 entry in assay [1] is reported as “Not Active”.

Take `O=c1[nH]c(-c2ccccc2O)nc2ccccc12`: the IC50 in assay [1] (read-out: IC50) stood at 10400 nM.

`COc1ccc(-c2nc(O)c3ccccc3n2)cc1` came in with a Ki in assay [4] of 250 nM. In assay [1] (read-out: IC50), the IC50 came out at 400 nM.

For the compound `O=c1[nH]c(-c2cccc([N+](=O)[O-])c2)nc2ccccc12`, in assay [1] (read-out: IC50), the IC50 came out at 18000 nM.
